Reference: US4122184A, “Benzimidazole insecticides” (priority 1977, dated 1978)

Experiments:
House Fly [1] = test: Housefly (Stomach) Test; format: in vivo, Musca domestica (Diptera); conditions: 24 h
Protocol: Ten chilled house flies are taken from the rearing cage and placed in a covered petri dish. Sugar cubes treated with 0.2 ml. of a formulation containing a specified level of the insecticide are placed in the petri dish one hour after the flies have been removed from the chill room. Controls consist of sugar cubes treated with 0.2 ml. of deionized water and cubes treated with 0.2 ml. of a formulation containing 500 ppm of malathion. Mortality counts are made 24 hours later. The same rating scale is used as before.

Milkweed Bug = Milkweed Bug Test; format: in vivo, Oncopeltis fasciatus (Hemiptera); conditions: 48 h
Protocol: Ten adult milkweed bugs are chilled and placed in a test cage. The cages containing the bugs are sprayed with 5 ml. of a test formulation containing a pre-determined amount of the insecticide, using a DeVilbiss atomizer at 10 psi held 33 inches from the top of the cage. After the cage has been allowed to dry, the bugs are fed and watered for 48 hours. A formulation containing 500 ppm of malathion is used as a reference standard and two unsprayed cages are kept as controls. Mortality counts are made 48 hours after spraying. Moribund adults are considered dead. The same rating scale is employed as before.

Boll Weevil = Boll Weevil Test; format: in vivo, Anthonomus grandis (Coleoptera); conditions: 48 h
Source text: The procedure is identical to that employed for the Mexican bean beetle and the Southern armyworm, except that 10 adult boll weevils are placed on cotton leaves that have been dipped into formulations of the test compounds. The same rating scale is used.

Mexican Bean Beetle = Mexican Bean Beetle Test; format: in vivo, Epilachna varivestis (Coleoptera); conditions: 48 h
Protocol: Cuttings of four six-day old Bountiful snap bean plants containing two leaves with approximately 5 square inches of leaf surface, are placed in water. The leaves are sprayed to wetting with about 5-10 ml. of a formulation containing a pre-determined level of the test compound. Half of the formulation is sprayed on the top surface and half on the bottom surface of the leaf using a DeVilbiss atomizer at 10 psi held at a distance of about 18 inches from the leaf. After the leaves have dried, they are cut from the stem and placed separately in petri dishes. Ten third instar, nonmolting Mexican bean beetle larvae grown on Bountiful snap beans are placed on each leaf. Controls consist of two leaves sprayed with 5 ml. of a 500 ppm malathion formulation (reference standard), two leaves sprayed with the formulation without the active ingredient and two leaves are held as untreated controls. After 48 hours, a mortality count is made and the amount of feeding noted. Moribund larvae are counted as dead.

Two-spotted Spider Mite = Two-spotted Spider Mite test; format: in vivo, Tetranychus urticae (Acarina); conditions: 48 h
Protocol: The procedure in this test is the same as that in the previous aphid test, except that about 100 two-spotted spider mites from a stock colony raised on squash plants are transferred to a cut squash cotyledon. The mortality is estimated 48 hours after spraying. The same rating scale is used.

Oriental Cockroach = test: Oriental Roach Test; format: in vivo, Blatta orientalis (Orthoptera); conditions: 24 h
Protocol: A rearing pan of late instar (3-4 months old) roaches is placed in a cold room for about 1 hour. Ten nymphs are taken from the pan and placed in each cage and the caged insects are kept at 70°-80° F. for 1 hour. The test cages are then sprayed in the manner indicated above in the milkweed bug test using 5 ml. of a formulation containing a specified amount of the insecticide. The test cages are held for 72 hours during which time the cockroaches are neither fed nor watered. Controls consist of 2 unsprayed cages, two cages sprayed with the formulation alone and 2 cages with a formulation containing 1000 ppm of heptachlor. Mortality counts are made 24 hours after spraying by shaking the cages lightly. All cockroaches remaining in the bottom are counted as dead.

[2] = test system: Southern Corn Rootworm Adults; test: Field trial, contact poison test; format: in vivo
Source text: (§1) Infested plants are placed in 6 oz. prescription bottles filled with water to keep them from wilting. Cellucotton is wrapped around the plant stem and squeezed into the bottle neck to prevent the insects from drowning.
(§2) A DeVilbiss Special Atomizer (5004) is used at 10 psi to spray the test plant with different concentrations of compounds. The atomizer is held at arm's length to prevent blowing the insects off the host plant. After treating, the bottles are placed on a table covered with brown wrapping paper to catch the dead insects as they drop from the plant. The plants are spaced so the leaves or plants are not touching one another.
(§3) The results are read at 24, 48, and 72 hours when applicable. The rating scale is 0 to 9 where 0 = 0-10 percent and 9 = 91-100 percent mortality.
(§4) Using the above methods, field trials were carried out against species of 5 orders of insects. The results, which are summarized in the following tables, give the average mortality for the particular insect with a given benzimidazole for each concentration employed. […] These tables contain all results obtained during the summer trials.

Yellow Mealworm Larvae = test: Field trial, topical application; format: in vivo; set-up: key: 0 = 0-10% mortality, 9 = 91-100% mortality (0-9 scale)
Protocol: as §3
In a variation of the above test, 1 microliter of a test solution containing a predetermined number of micrograms of benzimidazole was applied directly to larvae or adult insects.
as §4

[3] = test system: Unidentified Green Leafhopper; test: Field trial, stomach poison test; format: in vivo; set-up: key: mortality rating on a 0 to 9 scale
Protocol: (§5) Leaves from the infested plant are treated with different concentrations of the test compounds, either by spraying with a DeVilbiss Special Atomizer (5004) at 10 psi or by dipping the leaves in solutions containing the compound. The leaves are then allowed to air dry.
(§6) After the leaves have dryed, they are placed in plastic petri dishes (100 × 25 mm), then the insects are counted out into each dish, five or ten insects per dish depending on the number of insects available. There are one or two replicates and usually two or three rates with each compound. Mortality results are taken at 24, 48 and 72 hours. The rating scale is 0 to 9.
as §4

[4] = test system: Tarnished Plant Bug Adults; test: Field trial, stomach poison test; format: in vivo; set-up: key: mortality rating on a 0 to 9 scale
Protocol: as §5, §6, §4

Melon Aphid = Melon Aphid Test; format: in vivo, Aphis gossypii (Hemiptera); conditions: 250 ppm, 24 h
Source text: Four blue hubbard squash seeds are planted per container in vermiculite and the containers watered from the bottom. After 6 days, the two weakest plants are cut off and one cotyledon and the primary leaves are removed from each of the two remaining plants. The remaining cotyledon is infested with 100 melon aphids from a stock colony by pinning the cotyledon against an aphid-infested squash cotyledon from the colony and allowing the aphids to transfer. After transfer, the colony leaf is removed. Forty-eight hours later, the infested leaves are sprayed to wetting with formulations containing graded amounts of the insecticide using a DeVilbiss atomizer at 10 psi held at 12-15 inches from the plant. Controls consist of two infested, unsprayed squash plants and two infested plants sprayed to wetting with a formulation containing 100 ppm malathion as a reference standard. The mortality is estimated 24 hours after spraying by observation using a 10 power dissecting microscope. The same rating scale is used as before.

Meadow Spittlebug = test: Field trial, stomach poison test; format: in vivo
Protocol: as §5, §6, §4

Squash Bug Adults = test: Field trial, contact poison test; format: in vivo; set-up: key: 0-9 rating: 0 = 0-10% mortality, 9 = 91-100% mortality
Source text: as §1, §2, §3, §4

Southern Armyworm = Southern Armyworm Test; format: in vivo, Prodenia eridania (Lepidoptera); conditions: 500 ppm, 48 h
Protocol: Ten uniform Southern armyworm larvae about 1-1.5 cm. in length, grown on Henderson lima beans, are placed on excized bean leaves in petri dishes. The bean leaves are obtained and sprayed with the insecticide in the same way as are the snap bean leaves in the Mexican bean beetle test. The reference standards in this instance are leaves sprayed with 5 ml. 100 ppm DDT solution. Mortality counts are made 48 hours after spraying and again moribund larvae are counted as dead. Missing larvae which have probably been eaten are considered alive. The same rating scale is used as in the Mexican bean beetle test.

House Fly [5] = test: Housefly (Contact) Test; format: in vivo, Musca domestica (Diptera); conditions: 24 h
Protocol: Rearing cages containing four-day old adult house flies are chilled at 35°-40° F. for about 1 hour. One hundred flies are transferred from the rearing cage to each test cage using a small scoop. The caged flies are kept for 1-2 hours at 70°-80° F. The cages are sprayed in the same manner as described for the milkweed bug with 5 ml. of the test formulation. Two unsprayed cages are held as controls and two cages are sprayed with a 50 ppm DDT formulation as a reference standard. Mortality counts are made 24 hours after spraying. […] The same rating scale is employed as heretofore.

[6] = test system: Southern Corn Rootworm Adults; test: Field trial, stomach poison test; format: in vivo; set-up: key: mortality rating on a 0 to 9 scale
Protocol: as §5, §6, §4

## CCOC(=O)CC(SP(=S)(OC)OC)C(=O)OCC (stereo not drawn) [Malathion, reference compound]
House Fly [1]; 500 ppm
  mortality rating: 6-7
Milkweed Bug; 500 ppm
  mortality rating: 7-8
Boll Weevil; 500 ppm
  mortality rating: 7-8
Mexican Bean Beetle; 500 ppm
  mortality rating: 7- 8

## O=C(Oc1ccc([N+](=O)[O-])cc1)n1c(C(F)(F)F)nc2c([N+](=O)[O-])cc(C(F)(F)F)cc21 [N, p-nitrophenyl-4-nitro-2,6-bis(trifluoromethyl)-1-benzimidazolecarboxylate]
Two-spotted Spider Mite; 1 ppm
  mortality rating: 2.5
Two-spotted Spider Mite; 5 ppm
  mortality rating: 1.5
Two-spotted Spider Mite; 500 ppm
  mortality rating: 8.5
Oriental Cockroach; 500 ppm
  mortality rating: 4.5
Oriental Cockroach; 1000 ppm
  mortality rating: 5.5
[2]; 25 ppm
  average mortality rating: 0 (0-10 percent)
[2]; 50 ppm
  average mortality rating: 5
[2]; 100 ppm
  average mortality rating: 3
Yellow Mealworm Larvae; 0.03 μg/μl
  average mortality rating: 1
Yellow Mealworm Larvae; 0.07 μg/μl
  average mortality rating: 3
Yellow Mealworm Larvae; 0.15 μg/μl
  average mortality rating: 7
[3]; 10 ppm
  average mortality rating: 0 (0-10 percent)
[3]; 25 ppm
  average mortality rating: 1
[3]; 50 ppm
  average mortality rating: 3
[4]; 10 ppm
  average mortality rating: 3
[4]; 25 ppm
  average mortality rating: 3
[4]; 50 ppm
  average mortality rating: 3
Melon Aphid
  mortality rating: 7.5
Meadow Spittlebug; 10 ppm
  average mortality rating: 1
Meadow Spittlebug; 25 ppm
  average mortality rating: 1
Meadow Spittlebug; 50 ppm
  average mortality rating: 0 (0-10 percent)
Boll Weevil; 10 ppm
  mortality rating: 1.5
Boll Weevil; 25 ppm
  mortality rating: 3.5
Squash Bug Adults; 125 ppm
  average mortality rating: 1
Squash Bug Adults; 250 ppm
  average mortality rating: 6
Squash Bug Adults; 500 ppm
  average mortality rating: 5
Squash Bug Adults; 750 ppm
  average mortality rating: 8

## O=[N+]([O-])c1cc(C(F)F)cc2nc(C(F)(F)F)[nH]c12 [M, 2-trifluoromethyl-4-nitro-6-difluoromethylbenzimidazole]
Two-spotted Spider Mite; 100 ppm
  mortality rating: 6.5
Two-spotted Spider Mite; 250 ppm
  mortality rating: 8.5
Oriental Cockroach; 500 ppm
  mortality rating: 1.5
House Fly [1]; 100 ppm
  mortality rating: 5.5
Southern Armyworm
  mortality rating: .5
House Fly [5]; 10 ppm
  mortality rating: 8.5
Milkweed Bug; 50 ppm
  mortality rating: .5
Milkweed Bug; 100 ppm
  mortality rating: 3.5
Boll Weevil; 50 ppm
  mortality rating: 1.5
Boll Weevil; 250 ppm
  mortality rating: 8.5
Boll Weevil; 500 ppm
  mortality rating: 8.5
Boll Weevil; 1000 ppm
  mortality rating: 7.5
Mexican Bean Beetle; 50 ppm
  mortality rating: 1.5
Mexican Bean Beetle; 100 ppm
  mortality rating: 5.5
Mexican Bean Beetle; 500 ppm
  mortality rating: 7.5

## Clc1ccc(C(c2ccc(Cl)cc2)C(Cl)(Cl)Cl)cc1 [DDT, reference compound]
House Fly [5]; 50 ppm
  mortality rating: 6-8

## CCOC(=O)n1c(C(F)(F)F)nc2c([N+](=O)[O-])cc(C(F)(F)F)cc21 [G, ethyl 2,6-bis(trifluoromethyl)-4-nitro-1-benzimidazolecarboxylate]
Oriental Cockroach; 1000 ppm
  mortality rating: 5.5

## CC(COc1ccc(C(C)(C)C)cc1)OS(=O)OCCCl (stereo not drawn) [Aramite, reference compound]
Two-spotted Spider Mite; 50 ppm
  mortality rating: 7-9

## ClC1=C(Cl)C2(Cl)C3C(Cl)C=CC3C1(Cl)C2(Cl)Cl (stereo not drawn) [Heptachlor, reference compound]
Oriental Cockroach; 1000 ppm
  mortality rating: 8-9

## mixture of N-ethyl-4-nitro-2,6-bis(trifluoromethyl)thio-1-benzimidazolecarboxanilide and N-ethyl-nitro-2,5-bis(trifluoromethyl)thio-1-benzimidazolecarboxanilide
Two-spotted Spider Mite; 1000 ppm
  mortality rating: 5 (51-60)
Oriental Cockroach; 1000 ppm
  mortality rating: 0 (0-10)
House Fly [1]; 1000 ppm
  mortality rating: 1 (11-20)
House Fly [5]; 10 ppm
  mortality rating: 6.5
House Fly [5]; 25 ppm
  mortality rating: 8.5
House Fly [5]; 50 ppm
  mortality rating: 8 (81-90)
House Fly [5]; 100 ppm
  mortality rating: 8 (81-90)
House Fly [5]; 250 ppm
  mortality rating: 9 (91-100)
House Fly [5]; 500 ppm
  mortality rating: 9 (91-100)
House Fly [5]; 1000 ppm
  mortality rating: 7 (71-80)
Milkweed Bug; 1000 ppm
  mortality rating: 1 (11-20)
Boll Weevil; 10 ppm
  mortality rating: 0 (0-10)
Boll Weevil; 25 ppm
  mortality rating: 6.5
Boll Weevil; 50 ppm
  mortality rating: 7.5
Boll Weevil; 100 ppm
  mortality rating: 8 (81-90)
Boll Weevil; 250 ppm
  mortality rating: 8.5
Boll Weevil; 500 ppm
  mortality rating: 9 (91-100)
Boll Weevil; 1000 ppm
  mortality rating: 9 (91-100)
Mexican Bean Beetle; 10 ppm
  mortality rating: 1.5
Mexican Bean Beetle; 25 ppm
  mortality rating: 6 (61-70)
Mexican Bean Beetle; 50 ppm
  mortality rating: 5.5
Mexican Bean Beetle; 100 ppm
  mortality rating: 6.5
Mexican Bean Beetle; 250 ppm
  mortality rating: 9 (91-100)
Mexican Bean Beetle; 500 ppm
  mortality rating: 9 (91-100)
Mexican Bean Beetle; 1000 ppm
  mortality rating: 9 (91-100)

## mixture of 7-nitro-1-piperidinothionocarbonyl-2,5-bis(trifluoromethyl)benzimidazole and 4-nitro-1-piperidinothionocarbonyl-2,6-bis(trifluoromethyl)benzimidazole
[2]; 25 ppm
  average mortality rating: 0 (0-10 percent)
[2]; 50 ppm
  average mortality rating: 9 (91-100 percent mortality)
[2]; 100 ppm
  average mortality rating: 9 (91-100 percent mortality)
Yellow Mealworm Larvae; 0.03 μg/μl
  average mortality rating: 3
Yellow Mealworm Larvae; 0.07 μg/μl
  average mortality rating: 3
Yellow Mealworm Larvae; 0.15 μg/μl
  average mortality rating: 3
[6]; 25 ppm
  average mortality rating: 1
[6]; 50 ppm
  average mortality rating: 7
[6]; 100 ppm
  average mortality rating: 3
